{"source": "patent US7923440B2", "about": "“Method of treating or preventing immune mediated disorders and pharmaceutical formulation for use therein” (Pantarhei Bioscience B.V., priority 2002, dated 2011)", "key": {"[1]": {"target": "T1, human ERα (Homo sapiens, UniProt P03372)", "T1 sequence (P03372 1-595)": "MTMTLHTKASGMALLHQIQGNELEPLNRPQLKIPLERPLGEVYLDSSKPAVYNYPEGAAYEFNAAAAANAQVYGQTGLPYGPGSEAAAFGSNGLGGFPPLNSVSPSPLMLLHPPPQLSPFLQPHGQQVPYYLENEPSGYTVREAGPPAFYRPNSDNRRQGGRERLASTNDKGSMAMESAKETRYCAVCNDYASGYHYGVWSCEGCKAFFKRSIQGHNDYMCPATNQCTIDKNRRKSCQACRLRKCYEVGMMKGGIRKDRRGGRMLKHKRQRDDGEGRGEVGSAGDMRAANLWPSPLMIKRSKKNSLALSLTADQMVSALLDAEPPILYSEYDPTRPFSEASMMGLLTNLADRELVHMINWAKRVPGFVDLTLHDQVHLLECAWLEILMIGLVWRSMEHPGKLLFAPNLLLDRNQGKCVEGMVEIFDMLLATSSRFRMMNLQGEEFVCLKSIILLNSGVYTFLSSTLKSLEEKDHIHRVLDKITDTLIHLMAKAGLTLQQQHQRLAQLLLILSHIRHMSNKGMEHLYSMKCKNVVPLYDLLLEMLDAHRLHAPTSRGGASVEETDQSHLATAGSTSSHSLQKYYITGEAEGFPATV", "experiment": "Competitive steroid binding assay, ERα", "conditions": "relative preference for binding to ERα protein, from Ki values"}, "[2]": {"tested_on": "SJL/J mice with experimental autoimmune encephalomyelitis (EAE)", "experiment": "PLP139-151 induced EAE in SJL/J mice, oral treatment", "assay_type": "in vivo", "conditions": "for EAE incidence / mean cumulative EAE score versus vehicle / mean cumulative EAE score: day 0-42; for mean cumulative EAE score: vehicle 17.4±5.0; for clinical EAE score in second phase (relapse): day 26 until day 42; for mean maximal clinical (disability) score: vehicle 1.8±0.3; for mean day of onset of EAE: vehicle day 12"}, "[3]": {"tested_on": "DBA-1 mice developing collagen induced arthritis (CIA)", "experiment": "Collagen induced arthritis (CIA) in female DBA-1 mice", "assay_type": "in vivo, mouse"}, "[4]": {"tested_on": "nonpregnant ewes", "conditions": "intravenously administered, Levine et al. 1984; cited from earlier work"}, "[5]": {"tested_on": "immature rat uterus", "conditions": "subcutaneously administered, cited from earlier work"}, "[6]": {"tested_on": "estrogen receptors in the human endometrium", "conditions": "cited from earlier work"}, "[7]": {"target": "T2, rat uterine cytosol estrogen receptor (Rattus norvegicus, UniProt P06211)", "T2 construct": "rat uterine cytosol estrogen receptor; host or cells: rat uterus, cytosol", "T2 sequence (P06211 1-600)": "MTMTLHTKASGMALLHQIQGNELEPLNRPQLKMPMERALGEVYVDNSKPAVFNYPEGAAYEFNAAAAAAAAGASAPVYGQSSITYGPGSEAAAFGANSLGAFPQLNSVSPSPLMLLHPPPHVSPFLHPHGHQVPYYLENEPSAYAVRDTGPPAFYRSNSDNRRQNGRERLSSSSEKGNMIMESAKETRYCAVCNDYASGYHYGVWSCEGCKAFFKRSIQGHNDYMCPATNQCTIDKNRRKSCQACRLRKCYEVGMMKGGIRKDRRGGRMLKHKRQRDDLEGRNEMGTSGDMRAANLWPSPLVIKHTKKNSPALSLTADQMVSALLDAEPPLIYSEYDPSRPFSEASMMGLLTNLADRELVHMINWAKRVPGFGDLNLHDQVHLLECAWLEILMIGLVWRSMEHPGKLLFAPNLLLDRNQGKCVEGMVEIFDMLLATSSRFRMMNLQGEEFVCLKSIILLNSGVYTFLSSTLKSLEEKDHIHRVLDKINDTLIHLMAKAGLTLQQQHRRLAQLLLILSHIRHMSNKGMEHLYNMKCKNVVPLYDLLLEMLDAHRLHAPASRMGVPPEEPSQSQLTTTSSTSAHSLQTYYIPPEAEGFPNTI", "conditions": "Martucci et al. 1976; cited from earlier work"}, "[8]": {"target": "T3, rat uterine nuclear estrogen receptor (Rattus norvegicus, UniProt P06211)", "T3 construct": "rat uterine nuclear estrogen receptor; host or cells: rat uterus, nuclear fraction", "T3 sequence (P06211 1-600)": "T2 sequence (P06211 1-600)", "conditions": "Martucci et al. 1976; cited from earlier work"}, "[9]": {"conditions": "ovariectomized female DBA-1 mice, sc and oral 0.1-3.0 mg/kg/day, 60 days"}}, "note": "Like-named read-outs stand apart in the source and are kept apart here.", "data": [{"smiles": "C[C@]12CC[C@@H]3c4ccc(O)cc4CC[C@H]3[C@@H]1[C@@H](O)[C@@H](O)[C@@H]2O", "note": "[E4, 1,3,5 (10)-estratrien-3,15α,16α,17β-tetrol]", "values": [{"measurement": "Relative ERα/ERβ preference", "setting": "[1]", "value": 400, "unit": "%"}, {"measurement": "disease onset of EAE versus vehicle", "setting": "[2]; oral 0.1 mg/kg/day", "value": "trend of delayed disease onset as compared to vehicle-treated mice, but this was not statistically significant"}, {"measurement": "mean maximal clinical score versus vehicle", "setting": "[2]; oral 0.1 mg/kg/day", "value": "did not show statistically significant differences"}, {"measurement": "EAE incidence", "setting": "[2]; oral 0.1 mg/kg/day", "value": 70, "unit": "%"}, {"measurement": "mean cumulative EAE score versus vehicle", "setting": "[2]; oral 0.1 mg/kg/day", "value": "did not show statistically significant differences"}, {"measurement": "disease onset of EAE versus vehicle", "setting": "[2]; oral 0.3 mg/kg/day", "value": "trend of delayed disease onset as compared to vehicle-treated mice, but this was not statistically significant"}, {"measurement": "mean maximal clinical score versus vehicle", "setting": "[2]; oral 0.3 mg/kg/day", "value": "did not show statistically significant differences"}, {"measurement": "EAE incidence", "setting": "[2]; oral 0.3 mg/kg/day", "value": 80, "unit": "%"}, {"measurement": "mean cumulative EAE score versus vehicle", "setting": "[2]; oral 0.3 mg/kg/day", "value": "did not show statistically significant differences"}, {"measurement": "EAE incidence", "setting": "[2]; oral 1 mg/kg/day", "value": 33, "unit": "%"}, {"measurement": "mean cumulative EAE score", "setting": "[2]; oral 1 mg/kg/day", "value": "3.9±1.8"}, {"measurement": "clinical EAE score in second phase (relapse)", "setting": "[2]; oral 1 mg/kg/day", "value": "little evidence of disease activity"}, {"measurement": "mean maximal clinical (disability) score", "setting": "[2]; oral 1 mg/kg/day", "value": "0.9±0.3"}, {"measurement": "mean day of onset of EAE", "setting": "[2]; oral 1 mg/kg/day", "value": 14.7, "unit": "days"}, {"measurement": "EAE incidence", "setting": "[2]; oral 3 mg/kg/day", "value": 40, "unit": "%"}, {"measurement": "mean cumulative EAE score", "setting": "[2]; oral 3 mg/kg/day", "value": "5.8±2.9"}, {"measurement": "clinical EAE score in second phase (relapse)", "setting": "[2]; oral 3 mg/kg/day", "value": "little evidence of disease activity"}, {"measurement": "mean maximal clinical (disability) score", "setting": "[2]; oral 3 mg/kg/day", "value": "0.8±0.3"}, {"measurement": "mean day of onset of EAE", "setting": "[2]; oral 3 mg/kg/day", "value": 15.7, "unit": "days"}, {"measurement": "side-effects (clinical symptoms other than EAE)", "setting": "[2]; oral once daily 0.1-3 mg/kg, 42 days", "value": "did not induce any significant side-effects"}, {"measurement": "symptoms and severity of CIA", "setting": "[3]; non-castrated female DBA-1, daily sc and/or oral", "value": "dose-dependently alleviate symptoms and severity of CIA"}, {"measurement": "number of afflicted animals and/or severity of CIA symptoms", "setting": "[3]; [9]", "value": "dose-dependently reduced"}, {"measurement": "onset of CIA symptoms", "setting": "[3]; [9]", "value": "dose-dependent effects in delaying the onset of CIA symptoms"}, {"measurement": "potency in uterine vasodilation relative to estriol and 17β-estradiol", "setting": "[4]", "value": "15 to 30", "unit": "times less potent"}, {"measurement": "uterotrophic activity", "setting": "[5]; Holinka et al. 1979", "value": "very weak uterotrophic activity"}, {"measurement": "uterotrophic activity", "setting": "[5]; Holinka et al. 1980", "value": "very weak uterotrophic activity"}, {"measurement": "relative binding constant compared to 17β-estradiol (100%)", "setting": "[6]; Tseng et al. 1976", "value": 6.25, "unit": "%"}, {"measurement": "Relative binding to estrogen receptors, of 17β-estradiol", "setting": "[6]; Tseng et al. 1978", "value": 1.5, "unit": "%"}, {"measurement": "relative binding affinity, of 17β-estradiol (100%)", "setting": "[7]", "value": 0.5, "unit": "%"}, {"measurement": "relative binding affinity, of 17β-estradiol (100%)", "setting": "[8]", "value": 0.3, "unit": "%"}]}]}
